Assay results: patent publication US10633397B2, “Substituted polycyclic pyridone derivatives and prodrugs thereof” (priority 2015, dated 2020)

How the values were obtained:
[1] = Metabolism stability test; type: in vitro ADME; conditions: human liver microsomes, 30 minutes, 37° C., 2 μmol/L of test compound
Protocol: Test Example 5: Metabolism Stability Test
Using commercially available pooled human hepatic microsomes, a compound of the present invention was reacted for a constant time, and a remaining rate was calculated by comparing a reacted sample and an unreacted sample, thereby, a degree of metabolism in liver was assessed.
A reaction was performed (oxidative reaction) at 37° C. for 0 minute or 30 minutes in the presence of 1 mmol/L NADPII in 0.2 mL of a buffer (50 mmol/L Tris-HCl pH 7.4, 150 mmol/L potassium chloride, 10 mmol/L magnesium chloride) containing 0.5 mg protein/mL of human liver microsomes. After the reaction, 50 μL of the reaction solution was added to 100 μL of a methanol/acetonitrile=1/1 (v/v), mixed and centrifuged at 3000 rpm for 15 minutes. The compound of the present invention in the supernatant was quantified by LC/MS/MS or Solid Phase Extraction (SPE)/MS, and a remaining amount of the compound of the present invention after the reaction was calculated, letting a compound amount at 0 minute reaction time to be 100%. Hydrolysis reaction was performed in the absence of NADPII and glucuronidation reaction was in the presence of 5 mM UDP-glucuronic acid in place of NADPH, followed by similar operations.

[2] = in vivo; conditions: oral vs intravenous administration, mice or SD rats, read-out: bioavailability (BA)
Protocol: Materials and Methods for Experiments to Evaluate Oral Absorption
(1) Experimental animals: mice or SD rats were used.
(2) Rearing condition: mice or SD rats were allowed free access to solid feed and sterilized tap water.
(3) Setting of dosage and grouping: Oral administration and intravenous administration were performed with the predetermined dosage. Grouping was set as below. (Dosage was changed per compound)
Oral administration 1 to 30 mg/kg (n=2 to 3)
Intravenous administration 0.5 to 10 mg/kg (n=2 to 3)
(4) Preparation of administration solutions: Oral administration was performed as solution or suspension. Intravenous administration was performed after solubilization.
(5) Routes of administration: Oral administration was performed mandatory into the stomach by oral sonde. […]
(6) Evaluation items: Blood was collected serially and concentration of a compound of the present invention in plasma was measured by LC/MS/MS.
(7) Statistical analysis: About transition of concentration of a compound of the present invention in plasma, the area under the plasma concentration versus time curve (AUC) was calculated by non-linear least-squares method program, WinNonlin (a registered trademark), and bioavailability (BA) of a compound of the present invention was calculated from AUCs of the oral administration group and the intravenous administration group. […]

[3] = biological target: T1, hERG (IKr) (Homo sapiens, UniProt Q12809); assay: hERG test; type: cell-based; conditions: HEK293 cells expressing hERG channel, pH 7.4, 0.3 to 10 μM of test compound, read-out: % inhibition of tail peak current (IKr)
T1 construct: expressed in transfected cells; host or cells: HEK293
T1 sequence (Q12809 whole entry): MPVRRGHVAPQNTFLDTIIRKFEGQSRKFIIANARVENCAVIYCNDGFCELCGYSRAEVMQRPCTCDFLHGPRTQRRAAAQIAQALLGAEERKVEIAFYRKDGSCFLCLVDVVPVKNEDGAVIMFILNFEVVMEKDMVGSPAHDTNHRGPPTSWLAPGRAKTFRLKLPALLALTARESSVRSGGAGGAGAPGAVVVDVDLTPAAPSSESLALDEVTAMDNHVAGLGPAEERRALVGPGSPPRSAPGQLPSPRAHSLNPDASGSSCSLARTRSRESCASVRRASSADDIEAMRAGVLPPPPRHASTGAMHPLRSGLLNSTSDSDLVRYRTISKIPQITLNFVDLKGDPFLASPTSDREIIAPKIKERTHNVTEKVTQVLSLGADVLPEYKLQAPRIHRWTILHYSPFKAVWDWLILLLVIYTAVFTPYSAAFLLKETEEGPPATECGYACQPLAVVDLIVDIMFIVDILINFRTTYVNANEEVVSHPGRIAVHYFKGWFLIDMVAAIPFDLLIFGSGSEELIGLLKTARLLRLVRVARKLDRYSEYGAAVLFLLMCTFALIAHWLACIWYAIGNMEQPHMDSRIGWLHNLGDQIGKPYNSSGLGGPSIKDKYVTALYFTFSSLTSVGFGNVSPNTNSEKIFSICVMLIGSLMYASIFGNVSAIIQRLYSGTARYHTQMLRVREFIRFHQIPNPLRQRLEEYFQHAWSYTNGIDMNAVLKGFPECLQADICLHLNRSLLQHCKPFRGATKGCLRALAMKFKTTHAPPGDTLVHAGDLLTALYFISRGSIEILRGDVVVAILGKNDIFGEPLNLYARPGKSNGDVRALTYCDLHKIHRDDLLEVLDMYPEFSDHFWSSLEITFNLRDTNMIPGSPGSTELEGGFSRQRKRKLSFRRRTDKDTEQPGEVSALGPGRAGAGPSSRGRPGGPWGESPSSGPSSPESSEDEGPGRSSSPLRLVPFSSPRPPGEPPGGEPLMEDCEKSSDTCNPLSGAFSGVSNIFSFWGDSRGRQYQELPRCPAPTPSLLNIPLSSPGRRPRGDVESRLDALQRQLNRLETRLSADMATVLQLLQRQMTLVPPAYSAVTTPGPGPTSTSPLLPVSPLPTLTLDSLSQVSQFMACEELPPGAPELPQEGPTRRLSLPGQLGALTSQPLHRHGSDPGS
From the text: Test Example 8: hERG Test
For the purpose of assessing risk of an electrocardiogram QT interval prolongation of the compound of the present invention, effects of the compound of the present invention on delayed rectifier K+ current (IKr), which plays an important role in the ventricular repolarization process, was studied using HEK293 cells expressing human ether-a-go-go related gene (hERG) channel.
After a cell was retained at a membrane potential of −80 mV by whole cell patch clamp method using an automated patch clamp system (PatchXpress 7000A, Axon Instruments Inc.), IKr induced by depolarization pulse stimulation at +40 mV for 2 seconds and, further, repolarization pulse stimulation at −50 mV for 2 seconds, was recorded. After the generated current was stabilized, extracellular solution (NaCl: 135 mmol/L, KCl: 5.4 mmol/L, NaH2PO4: 0.3 mmol/L, CaCl2.2H2O: 1.8 mmol/L, MgCl2.6H2O: 1 mmol/L, glucose: 10 mmol/L, HEPES (4-(2-hydroxyethyl)-1-piperazineethanesulfonic acid): 10 mmol/L, pH=7.4), in which the compound of the present invention had been dissolved at an objective concentration, was applied to the cell at room temperature for 10 minutes. From the recording IKr, an absolute value of the tail peak current was measured based on the current value at the resting membrane potential using analysis software (DataXpress ver. 1, Molecular Devices Corporation).

[4] = test system: influenza virus; assay: CPE inhibitory effect confirming assay; type: cell-based; conditions: unidentified influenza virus, 72 h, read-out: CPE_EC50
[5] = in vivo; conditions: rat, SD rats, intravenous administration
Protocol: Test Example 13: Intravenous Administration Test
Examined experimental materials and method of intravenous administration test
(1) Animals used: SD rats were used.
(2) Rearing conditions: Pellets and sterilized tap water were fed to SD rats ad libitum.
(3) Dosage and grouping: A predetermined dosage was intravenously administered. Groups were set as follows. (Dosage varied for each compound)
Intravenous administration 0.5-1 mg/kg (n=2-3)
(4) Preparation of administration solution: Intravenous administration was performed after solubilization.
(5) Administration method: Intravenous administration was performed with a needle-equipped syringe on the caudal vein.
(6) End point: Blood was collected over time, and the plasma concentration of the compound of the present invention was measured using LC/MS/MS.
(7) Statistical analysis: As for the transition of the plasma concentration of the compound of the present invention, the total body clearance (CLtot) and the elimination half-life (t1/2, z) were calculated using nonlinear least-squares program WinNonlin®.

[6] = test system: red blood cells prepared from a defibrinated blood of sheep; assay: Light hemolysis test; type: cell-based; conditions: 10 J/cm^2 UV-irradiation, 0.0008 to 0.1 w/v %
Protocol: Test Example 12: Light Hemolysis Test
The compound of the present invention was dissolved at target concentrations and was mixed with a 2.5 v/v % suspension of red blood cells prepared from a defibrinated blood of sheep on a microplate at concentrations of 0.0008 to 0.1 w/v %. The mixtures were exposed to 10 J/cm^2 of UV-irradiation within a range of wavelength 290 to 400 nm, UVA and UVB using ultra violet fluorescent lamps, GL20SE and FL20S-BLB lamps manufactured by Sankyo Denki Co., Ltd. and Panasonic Corporation, respectively. After the completion of the irradiation, the mixtures were centrifuged, and a supernatant of the mixture was collected and was located on a microplate. The phototoxicity was assessed by measuring an absorbance at wavelength of 540 nm and 630 nm in the supernatant. The absorbance data at wavelength of 540 nm and 630 nm were used as indicators of biomembrane damage (photohemolysis %) and hyperoxidation of lipid membrane (methemoglobin formation), respectively. The criteria of phototoxicity was as follows; It was judged to be non-phototoxic (−) when the photohemolysis %<10 and the maximal change in the absorbance at 630 nm (ΔOD)<0.05 were observed. It was judged to be […] when the photohemolysis was more than 10% and the maximal change in the absorbance at 630 nm (ΔOD) was more than 0.05.

Question: Which “% compound remaining after microsomal incubation” value [1] does the source give for `O=C1c2c(O)c(=O)ccn2N([C@@H]2c3ccccc3SCc3c2ccc(F)c3F)[C@@H]2COCCN12` [III-2] here?
Answer: The value was 90.1%.

Question: And the bioavailability [2]?
Answer: The bioavailability was 4.2%.

Question: And the inhibition at 10 min [3]?
Answer: The inhibition at 10 min was 7.9%.

Question: And the EC50 [4]?
Answer: The EC50 was 1.13 nM.

Question: What about the half-life ([5]; read-out: elimination half-life (t1/2, z) (converted)) of the same molecule?
Answer: Its half-life is 3.4 h.

Question: And the clearance ([5]; read-out: total body clearance (CLtot))?
Answer: The clearance was 16.4 mL/min/kg.

Question: And the phototoxicity [6]?
Answer: Its phototoxicity is “(−) (It was judged to be non-phototoxic (−) when the photohemolysis %<10 and the maximal change in the absorbance at 630 nm (ΔOD)<0.05 were observed)”.
